Source: article PMC3694096, “Development of Novel In Vivo Chemical Probes to Address CNS Protein Kinase Involvement in Synaptic Dysfunction” (PLoS ONE, 2013)

Experiments:
[1] = molecular target: T1, DCAMKL2 (Homo sapiens, UniProt Q8N568); test: Kinome profiler screen; format: biochemical; conditions: at 20,000 nM inhibitor; kinase activity remaining
T1 construct: purchased Millipore KinaseProfiler

[2] = molecular target: T2, Ron (Homo sapiens, UniProt Q04912); test: Kinome profiler screen; format: biochemical; conditions: at 20,000 nM inhibitor; kinase activity remaining
T2 construct: purchased Millipore KinaseProfiler

[3] = molecular target: T3, PI3 Kinase (p120γ) (Homo sapiens, UniProt P48736); test: Kinome profiler screen; format: biochemical; conditions: at 20,000 nM inhibitor; kinase activity remaining
T3 construct: purchased Millipore KinaseProfiler

[4] = molecular target: T4, Pim-1 (Homo sapiens, UniProt P11309); test: Kinome profiler screen; format: biochemical; conditions: at 20,000 nM inhibitor; kinase activity remaining
T4 construct: purchased Millipore KinaseProfiler

[5] = molecular target: T5, FGFR3 (Homo sapiens, UniProt P22607); test: Kinome profiler screen; format: biochemical; conditions: at 20,000 nM inhibitor; kinase activity remaining
T5 construct: purchased Millipore KinaseProfiler

[6] = molecular target: T6, DYRK2 (Homo sapiens, UniProt Q92630); test: Kinome profiler screen; format: biochemical; conditions: at 20,000 nM inhibitor; kinase activity remaining
T6 construct: purchased Millipore KinaseProfiler

[7] = molecular target: T7, CLK2 (Homo sapiens, UniProt P49760); test: Kinome profiler screen; format: biochemical; conditions: at 20,000 nM inhibitor; kinase activity remaining
T7 construct: purchased Millipore KinaseProfiler

[8] = molecular target: T8, Fes (Homo sapiens, UniProt P07332); test: Kinome profiler screen; format: biochemical; conditions: at 20,000 nM inhibitor; kinase activity remaining
T8 construct: purchased Millipore KinaseProfiler

[9] = molecular target: T9, Flt4 (Homo sapiens, UniProt P35916); test: Kinome profiler screen; format: biochemical
T9 construct: purchased Millipore
T9 sequence (P35916 25-1363): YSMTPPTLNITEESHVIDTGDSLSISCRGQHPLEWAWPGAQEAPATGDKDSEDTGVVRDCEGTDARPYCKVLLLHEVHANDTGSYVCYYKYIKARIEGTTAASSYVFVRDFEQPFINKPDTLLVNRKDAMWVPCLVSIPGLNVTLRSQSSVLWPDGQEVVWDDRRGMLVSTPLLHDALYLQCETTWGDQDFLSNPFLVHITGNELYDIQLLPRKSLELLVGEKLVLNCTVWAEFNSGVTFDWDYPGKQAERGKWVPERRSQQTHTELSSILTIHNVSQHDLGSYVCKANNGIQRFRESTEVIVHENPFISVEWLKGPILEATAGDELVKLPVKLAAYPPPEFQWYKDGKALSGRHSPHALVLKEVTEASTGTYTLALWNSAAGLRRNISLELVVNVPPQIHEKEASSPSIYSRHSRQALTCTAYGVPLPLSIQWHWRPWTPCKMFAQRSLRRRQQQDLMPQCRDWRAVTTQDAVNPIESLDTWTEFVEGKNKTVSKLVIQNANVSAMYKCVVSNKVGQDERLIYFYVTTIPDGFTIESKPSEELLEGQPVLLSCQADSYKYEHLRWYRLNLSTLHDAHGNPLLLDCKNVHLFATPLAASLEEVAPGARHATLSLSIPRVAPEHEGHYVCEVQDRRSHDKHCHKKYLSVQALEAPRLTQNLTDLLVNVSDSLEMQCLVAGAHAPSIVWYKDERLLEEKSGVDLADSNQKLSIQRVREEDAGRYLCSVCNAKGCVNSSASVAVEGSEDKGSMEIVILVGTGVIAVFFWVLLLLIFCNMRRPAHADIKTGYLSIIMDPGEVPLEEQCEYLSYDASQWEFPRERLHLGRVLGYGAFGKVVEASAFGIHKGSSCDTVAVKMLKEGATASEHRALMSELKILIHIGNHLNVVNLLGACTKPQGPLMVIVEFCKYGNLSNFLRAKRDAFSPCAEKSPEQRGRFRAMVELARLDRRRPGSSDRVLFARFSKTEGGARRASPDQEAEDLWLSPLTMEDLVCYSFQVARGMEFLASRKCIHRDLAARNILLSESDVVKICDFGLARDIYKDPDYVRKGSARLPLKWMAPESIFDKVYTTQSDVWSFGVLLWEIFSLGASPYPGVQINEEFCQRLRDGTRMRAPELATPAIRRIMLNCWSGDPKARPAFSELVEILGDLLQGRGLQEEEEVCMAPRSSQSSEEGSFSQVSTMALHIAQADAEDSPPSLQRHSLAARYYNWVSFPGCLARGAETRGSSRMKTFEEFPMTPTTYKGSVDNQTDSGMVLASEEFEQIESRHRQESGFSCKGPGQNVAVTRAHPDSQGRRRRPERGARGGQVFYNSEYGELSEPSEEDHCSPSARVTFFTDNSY

[10] = molecular target: T10, cKit(D816V) (Homo sapiens, UniProt P10721, D816V); test: Kinome profiler screen; format: biochemical; conditions: at 20,000 nM inhibitor; kinase activity remaining
T10 construct: purchased Millipore KinaseProfiler

[11] = molecular target: T11, EphA4 (Homo sapiens, UniProt P54764); test: Kinome profiler screen; format: biochemical; conditions: at 20,000 nM inhibitor; kinase activity remaining
T11 construct: purchased Millipore KinaseProfiler
T11 sequence (P54764 20-986): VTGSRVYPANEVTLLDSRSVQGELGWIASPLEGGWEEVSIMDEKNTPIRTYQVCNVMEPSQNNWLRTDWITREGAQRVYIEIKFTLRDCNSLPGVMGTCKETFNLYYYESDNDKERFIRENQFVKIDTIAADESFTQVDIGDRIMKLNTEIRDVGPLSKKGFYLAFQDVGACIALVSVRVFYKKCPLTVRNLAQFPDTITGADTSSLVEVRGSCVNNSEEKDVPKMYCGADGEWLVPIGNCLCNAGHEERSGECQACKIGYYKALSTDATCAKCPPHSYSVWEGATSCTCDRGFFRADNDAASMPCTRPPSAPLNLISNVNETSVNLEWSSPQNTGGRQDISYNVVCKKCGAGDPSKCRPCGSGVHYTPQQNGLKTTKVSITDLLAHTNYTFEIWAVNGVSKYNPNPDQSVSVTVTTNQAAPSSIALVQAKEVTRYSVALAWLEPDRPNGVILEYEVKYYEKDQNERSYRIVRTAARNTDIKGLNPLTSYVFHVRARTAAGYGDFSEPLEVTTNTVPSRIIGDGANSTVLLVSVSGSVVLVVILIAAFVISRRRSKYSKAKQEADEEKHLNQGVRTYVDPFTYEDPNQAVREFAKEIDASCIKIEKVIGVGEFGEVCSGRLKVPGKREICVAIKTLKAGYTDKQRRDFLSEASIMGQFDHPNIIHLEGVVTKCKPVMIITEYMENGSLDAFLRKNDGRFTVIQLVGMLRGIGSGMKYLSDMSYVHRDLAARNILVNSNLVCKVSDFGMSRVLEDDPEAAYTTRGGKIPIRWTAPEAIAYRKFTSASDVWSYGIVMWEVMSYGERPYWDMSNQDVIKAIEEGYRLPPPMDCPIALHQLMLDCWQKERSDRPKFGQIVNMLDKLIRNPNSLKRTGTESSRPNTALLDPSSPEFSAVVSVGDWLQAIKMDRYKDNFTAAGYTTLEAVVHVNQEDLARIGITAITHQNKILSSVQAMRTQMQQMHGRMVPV

[12] = molecular target: T12, ROCK-II (Homo sapiens, UniProt O75116); test: Kinome profiler screen; format: biochemical; conditions: at 20,000 nM inhibitor; kinase activity remaining
T12 construct: purchased Millipore KinaseProfiler

[13] = molecular target: T13, Hck (Homo sapiens, UniProt P08631); test: Kinome profiler screen; format: biochemical; conditions: at 20,000 nM inhibitor; kinase activity remaining
T13 construct: purchased Millipore KinaseProfiler
T13 sequence (P08631 whole entry): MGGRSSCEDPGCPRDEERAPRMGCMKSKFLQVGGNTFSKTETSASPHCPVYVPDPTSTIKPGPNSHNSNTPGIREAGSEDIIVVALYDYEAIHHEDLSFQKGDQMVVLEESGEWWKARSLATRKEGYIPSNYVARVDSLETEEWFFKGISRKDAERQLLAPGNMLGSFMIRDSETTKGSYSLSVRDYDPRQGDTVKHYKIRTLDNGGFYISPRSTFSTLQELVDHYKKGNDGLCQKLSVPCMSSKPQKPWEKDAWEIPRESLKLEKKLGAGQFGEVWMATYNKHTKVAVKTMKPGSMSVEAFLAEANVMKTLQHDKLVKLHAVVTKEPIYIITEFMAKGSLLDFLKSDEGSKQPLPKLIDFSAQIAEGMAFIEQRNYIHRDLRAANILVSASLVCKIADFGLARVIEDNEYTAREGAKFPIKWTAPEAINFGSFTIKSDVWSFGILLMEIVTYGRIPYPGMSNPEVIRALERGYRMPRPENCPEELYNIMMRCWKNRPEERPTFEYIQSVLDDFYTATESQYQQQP

[14] = molecular target: T14, PI3 Kinase (p110α/p65α)(m) (Mus musculus, UniProt P42337); test: Kinome profiler screen; format: biochemical; conditions: at 20,000 nM inhibitor; kinase activity remaining
T14 construct: purchased Millipore KinaseProfiler

[15] = molecular target: T15, AMPKα2 (Homo sapiens, UniProt P54646); test: Kinome profiler screen; format: biochemical; conditions: at 20,000 nM inhibitor; kinase activity remaining
T15 construct: purchased Millipore KinaseProfiler

[16] = molecular target: T16, Aurora-B (Homo sapiens, UniProt Q96GD4); test: Kinome profiler screen; format: biochemical; conditions: at 20,000 nM inhibitor; kinase activity remaining
T16 construct: purchased Millipore KinaseProfiler

[17] = molecular target: T17, PKCα (Homo sapiens, UniProt P17252); test: Kinome profiler screen; format: biochemical; conditions: at 20,000 nM inhibitor; kinase activity remaining
T17 construct: purchased Millipore KinaseProfiler

[18] = molecular target: T18, IRAK1 (Homo sapiens, UniProt P51617); test: Kinome profiler screen; format: biochemical; conditions: at 20,000 nM inhibitor; kinase activity remaining
T18 construct: purchased Millipore KinaseProfiler

[19] = system: BV-2 microglial cells; test: cells; format: cell-based, murine; conditions: BV-2 cells
[20] = molecular target: T19, MuSK (Homo sapiens, UniProt O15146); test: Kinome profiler screen; format: biochemical; conditions: at 20,000 nM inhibitor; kinase activity remaining
T19 construct: purchased Millipore KinaseProfiler

[21] = molecular target: T20, MAPK2 (Homo sapiens, UniProt P28482); test: Kinome profiler screen; format: biochemical; conditions: at 20,000 nM inhibitor; kinase activity remaining
T20 construct: purchased Millipore KinaseProfiler

[22] = molecular target: T21, PKCγ (Homo sapiens, UniProt P05129); test: Kinome profiler screen; format: biochemical; conditions: at 20,000 nM inhibitor; kinase activity remaining
T21 construct: purchased Millipore KinaseProfiler

[23] = molecular target: T22, MINK (Homo sapiens, UniProt Q8N4C8); test: Kinome profiler screen; format: biochemical; conditions: at 20,000 nM inhibitor; kinase activity remaining
T22 construct: purchased Millipore KinaseProfiler

[24] = molecular target: T23, PKCδ (Homo sapiens, UniProt Q05655); test: Kinome profiler screen; format: biochemical; conditions: at 20,000 nM inhibitor; kinase activity remaining
T23 construct: purchased Millipore KinaseProfiler

[25] = molecular target: T24, MST2 (Homo sapiens, UniProt Q13188); test: Kinome profiler screen; format: biochemical; conditions: at 20,000 nM inhibitor; kinase activity remaining
T24 construct: purchased Millipore KinaseProfiler

[26] = molecular target: T25, Ret (V804L) (Homo sapiens, UniProt P07949, V804L); test: Kinome profiler screen; format: biochemical; conditions: at 20,000 nM inhibitor; kinase activity remaining
T25 construct: purchased Millipore KinaseProfiler

[27] = molecular target: T26, Yes (Homo sapiens, UniProt P07947); test: Kinome profiler screen; format: biochemical; conditions: at 20,000 nM inhibitor; kinase activity remaining
T26 construct: purchased Millipore KinaseProfiler
T26 sequence (P07947 whole entry): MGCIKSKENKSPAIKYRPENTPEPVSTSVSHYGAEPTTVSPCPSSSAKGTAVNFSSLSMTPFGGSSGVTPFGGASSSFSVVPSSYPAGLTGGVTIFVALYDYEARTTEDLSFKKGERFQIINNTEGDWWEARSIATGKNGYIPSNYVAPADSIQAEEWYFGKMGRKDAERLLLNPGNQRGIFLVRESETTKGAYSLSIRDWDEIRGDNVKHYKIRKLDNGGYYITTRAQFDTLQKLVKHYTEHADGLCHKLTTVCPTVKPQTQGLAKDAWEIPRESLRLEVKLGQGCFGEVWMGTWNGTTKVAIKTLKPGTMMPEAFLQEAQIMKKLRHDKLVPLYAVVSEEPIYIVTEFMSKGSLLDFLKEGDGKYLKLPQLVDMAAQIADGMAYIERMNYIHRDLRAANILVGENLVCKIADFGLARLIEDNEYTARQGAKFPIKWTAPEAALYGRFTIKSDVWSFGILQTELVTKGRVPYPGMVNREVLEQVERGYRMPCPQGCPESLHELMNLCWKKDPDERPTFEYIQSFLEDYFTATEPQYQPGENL

[28] = molecular target: T27, CK1γ3 (Homo sapiens, UniProt Q9Y6M4); test: Kinome profiler screen; format: biochemical; conditions: at 20,000 nM inhibitor; kinase activity remaining
T27 construct: purchased Millipore KinaseProfiler

[29] = molecular target: T28, Abl(Y253F) (Homo sapiens, UniProt P00519, Y253F); test: Kinome profiler screen; format: biochemical; conditions: at 20,000 nM inhibitor; kinase activity remaining
T28 construct: purchased Millipore KinaseProfiler

[30] = molecular target: T29, Met (Homo sapiens, UniProt P08581); test: Kinome profiler screen; format: biochemical; conditions: at 20,000 nM inhibitor; kinase activity remaining
T29 construct: purchased Millipore KinaseProfiler

[31] = molecular target: T30, WNK2 (Homo sapiens, UniProt Q9Y3S1); test: Kinome profiler screen; format: biochemical; conditions: at 20,000 nM inhibitor; kinase activity remaining
T30 construct: purchased Millipore KinaseProfiler

[32] = molecular target: T31, DMPK (Homo sapiens, UniProt Q09013); test: Kinome profiler screen; format: biochemical; conditions: at 20,000 nM inhibitor; kinase activity remaining
T31 construct: purchased Millipore KinaseProfiler

[33] = molecular target: T32, EGFR(L858R) (Homo sapiens, UniProt P00533, L858R); test: Kinome profiler screen; format: biochemical; conditions: at 20,000 nM inhibitor; kinase activity remaining
T32 construct: purchased Millipore KinaseProfiler

[34] = molecular target: T33, BRK (Homo sapiens, UniProt Q13882); test: Kinome profiler screen; format: biochemical; conditions: at 20,000 nM inhibitor; kinase activity remaining
T33 construct: purchased Millipore KinaseProfiler
T33 sequence (Q13882 whole entry): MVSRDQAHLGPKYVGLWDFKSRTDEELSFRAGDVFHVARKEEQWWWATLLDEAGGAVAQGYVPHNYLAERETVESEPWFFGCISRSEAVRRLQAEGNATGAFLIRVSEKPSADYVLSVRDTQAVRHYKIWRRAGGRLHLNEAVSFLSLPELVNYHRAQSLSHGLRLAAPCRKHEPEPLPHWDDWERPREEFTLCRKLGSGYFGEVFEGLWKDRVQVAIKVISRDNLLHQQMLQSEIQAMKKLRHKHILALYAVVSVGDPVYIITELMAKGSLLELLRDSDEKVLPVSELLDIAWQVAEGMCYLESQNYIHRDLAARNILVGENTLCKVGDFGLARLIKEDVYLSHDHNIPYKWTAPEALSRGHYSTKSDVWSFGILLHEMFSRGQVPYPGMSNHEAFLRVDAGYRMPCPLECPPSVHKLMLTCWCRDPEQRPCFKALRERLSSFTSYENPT

[35] = molecular target: T34, eEF-2K (Homo sapiens, UniProt O00418); test: Kinome profiler screen; format: biochemical; conditions: at 20,000 nM inhibitor; kinase activity remaining
T34 construct: purchased Millipore KinaseProfiler

[36] = molecular target: T35, Met(M1268T) (Homo sapiens, UniProt P08581, M1250T); test: Kinome profiler screen; format: biochemical; conditions: at 20,000 nM inhibitor; kinase activity remaining
T35 construct: purchased Millipore KinaseProfiler

[37] = molecular target: T36, cKit(D816H) (Homo sapiens, UniProt P10721, D816H); test: Kinome profiler screen; format: biochemical; conditions: at 20,000 nM inhibitor; kinase activity remaining
T36 construct: purchased Millipore KinaseProfiler

[38] = molecular target: T37, MAPK1 (Homo sapiens, UniProt P27361); test: Kinome profiler screen; format: biochemical; conditions: at 20,000 nM inhibitor; kinase activity remaining
T37 construct: purchased Millipore KinaseProfiler

[39] = molecular target: T38, GRK7 (Homo sapiens, UniProt Q8WTQ7); test: Kinome profiler screen; format: biochemical
T38 construct: purchased Millipore KinaseProfiler

[40] = molecular target: T39, IR (Homo sapiens, UniProt P06213); test: Kinome profiler screen; format: biochemical; conditions: at 20,000 nM inhibitor; kinase activity remaining
T39 construct: purchased Millipore KinaseProfiler

[41] = molecular target: T40, PI3 Kinase (p110 β/p85α)(m) (Mus musculus, UniProt Q8BTI9); test: Kinome profiler screen; format: biochemical; conditions: at 20,000 nM inhibitor; kinase activity remaining
T40 construct: purchased Millipore KinaseProfiler

[42] = molecular target: T41, VRK2 (Homo sapiens, UniProt Q86Y07); test: Kinome profiler screen; format: biochemical; conditions: at 20,000 nM inhibitor; kinase activity remaining
T41 construct: purchased Millipore KinaseProfiler

[43] = molecular target: T42, MAPK2(m) (Mus musculus, UniProt P63085); test: Kinome profiler screen; format: biochemical; conditions: at 20,000 nM inhibitor; kinase activity remaining
T42 construct: purchased Millipore KinaseProfiler
T42 sequence (P63085 2-358): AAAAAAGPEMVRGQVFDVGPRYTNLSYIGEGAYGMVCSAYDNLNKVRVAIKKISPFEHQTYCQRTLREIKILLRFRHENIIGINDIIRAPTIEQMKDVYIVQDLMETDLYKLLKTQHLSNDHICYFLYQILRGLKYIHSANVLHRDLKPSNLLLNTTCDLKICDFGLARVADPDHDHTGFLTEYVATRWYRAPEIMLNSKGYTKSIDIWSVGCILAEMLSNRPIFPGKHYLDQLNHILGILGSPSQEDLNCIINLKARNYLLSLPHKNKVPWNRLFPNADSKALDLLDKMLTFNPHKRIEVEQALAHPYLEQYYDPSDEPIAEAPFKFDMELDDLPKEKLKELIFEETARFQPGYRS

T1 sequence (Q8N568 whole entry): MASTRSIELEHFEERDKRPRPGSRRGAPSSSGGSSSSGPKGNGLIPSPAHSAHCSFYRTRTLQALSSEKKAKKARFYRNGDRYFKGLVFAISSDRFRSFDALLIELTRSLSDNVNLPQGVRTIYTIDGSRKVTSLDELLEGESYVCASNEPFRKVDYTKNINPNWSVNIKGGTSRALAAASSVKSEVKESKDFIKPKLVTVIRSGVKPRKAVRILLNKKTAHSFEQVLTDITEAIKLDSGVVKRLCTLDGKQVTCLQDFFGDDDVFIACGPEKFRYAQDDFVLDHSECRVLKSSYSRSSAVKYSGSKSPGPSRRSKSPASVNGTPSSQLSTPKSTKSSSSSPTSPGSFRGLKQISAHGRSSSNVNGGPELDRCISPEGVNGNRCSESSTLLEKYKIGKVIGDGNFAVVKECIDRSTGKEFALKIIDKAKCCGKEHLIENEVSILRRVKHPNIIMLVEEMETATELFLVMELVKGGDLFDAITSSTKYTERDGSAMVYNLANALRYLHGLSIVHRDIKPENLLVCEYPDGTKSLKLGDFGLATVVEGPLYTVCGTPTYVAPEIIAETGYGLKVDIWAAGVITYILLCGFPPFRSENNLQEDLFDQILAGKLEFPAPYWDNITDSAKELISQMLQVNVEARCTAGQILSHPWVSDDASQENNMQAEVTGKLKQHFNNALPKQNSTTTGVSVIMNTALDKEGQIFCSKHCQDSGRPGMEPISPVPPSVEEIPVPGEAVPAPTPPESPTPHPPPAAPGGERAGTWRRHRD

CN(C)c1cc(-c2ccncc2)c(-c2ccc3ccccc3c2)nn1 [MW108, N, N-dimethyl-6-(naphthalen-2-yl)-5-(pyridin-4-yl)pyridazin-3-amine]
activity at 20 µM [1]: 109%
activity at 20 µM [2]: 91%
activity at 20 µM [3]: 101%
activity at 20 µM [4]: 103%
activity at 20 µM [5]: 86%
activity at 20 µM [6]: 108%
activity at 20 µM [7]: 103%
activity at 20 µM [8]: 111%
IC50 [9]: 4910 nM
activity at 20 µM ([9]; at 20,000 nM inhibitor, kinase activity remaining): 11%
activity at 20 µM [10]: 103%
activity at 20 µM [11]: 97%
activity at 20 µM [12]: 99%
activity at 20 µM [13]: 93%
activity at 20 µM [14]: 101%
activity at 20 µM [15]: 102%
activity at 20 µM [16]: 134%
activity at 20 µM [17]: 92%
activity at 20 µM [18]: 97%
LPS-induced IL-1β production ([19]; LPS): inhibited LPS-induced IL-1β production in a concentration-dependent manner
IC50 ([19]; Mus musculus, 100 ng/ml LPS, 18 hrs, read-out: IC50, inhibition of IL-1β overproduction): 610 ± 20 nM
activity at 20 µM [20]: 104%
activity at 20 µM [21]: 113%
activity at 20 µM [22]: 93%
activity at 20 µM [23]: 48%
activity at 20 µM [24]: 101%
activity at 20 µM [25]: 98%
activity at 20 µM [26]: 102%
activity at 20 µM [27]: 63%
activity at 20 µM [28]: 100%
activity at 20 µM [29]: 98%
activity at 20 µM [30]: 118%
activity at 20 µM [31]: 101%
activity at 20 µM [32]: 108%
activity at 20 µM [33]: 48%
activity at 20 µM [34]: 85%
activity at 20 µM [35]: 108%
activity at 20 µM [36]: 91%
activity at 20 µM [37]: 109%
activity at 20 µM [38]: 82%
activity at 20 µM [39]: 98%
activity at 20 µM [40]: 100%
activity at 20 µM [41]: 99%
activity at 20 µM [42]: 83%
activity at 20 µM [43]: 109%
